From the supplement of paper PMC10307832

Legend:
Assay in all cases: relative viability (nuclei count vs DMSO), 5 days (fraction); higher = more cells survive
Doxorubicin + Navitoclax = compound: COc1cccc2c1C(=O)c1c(O)c3c(c(O)c1C2=O)C[C@@](O)(C(=O)CO)C[C@@H]3O[C@H]1C[C@H](N)[C@H](O)[C@H](C)O1 [Doxorubicin] + CC1(C)CCC(c2ccc(Cl)cc2)=C(CN2CCN(c3ccc(C(=O)NS(=O)(=O)c4ccc(N[C@H](CCN5CCOCC5)CSc5ccccc5)c(S(=O)(=O)C(F)(F)F)c4)cc3)CC2)C1 [Navitoclax] (partner 0.5 µM)
In short: (§1)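 Relative viability is defined as nuclei in treated wells over nuclei in vehicle wells. Duplicate plates were run and medians reported. Lung cancer cell lines in 1536-well plates were dosed by pin tool one day after seeding, with one drug or with a fixed anchor-drug dose plus five library-drug doses (not always all listed) in √10 steps, and nuclei were counted after 5 days.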

Doxorubicin + Linsitinib = compound: COc1cccc2c1C(=O)c1c(O)c3c(c(O)c1C2=O)C[C@@](O)(C(=O)CO)C[C@@H]3O[C@H]1C[C@H](N)[C@H](O)[C@H](C)O1 [Doxorubicin] + C[C@]1(O)C[C@@H](c2nc(-c3ccc4ccc(-c5ccccc5)nc4c3)c3c(N)nccn32)C1 [Linsitinib] (partner 1 µM)
In short: as §1

BAY61-3606 + Tozasertib = compound: COC1=C(C=C(C=C1)C2=CC3=NC=CN3C(=N2)NC4=C(C=CC=N4)C(=O)N)OC [BAY61-3606] + Cc1cc(Nc2cc(N3CCN(C)CC3)nc(Sc3ccc(NC(=O)C4CC4)cc3)n2)n[nH]1 [Tozasertib] (partner 0.1 µM)
In short: as §1

[1] = compound: COc1cccc2c1C(=O)c1c(O)c3c(c(O)c1C2=O)C[C@@](O)(C(=O)CO)C[C@@H]3O[C@H]1C[C@H](N)[C@H](O)[C@H](C)O1 [Doxorubicin] + CC(=O)c1c(C)c2cnc(Nc3ccc(N4CCNCC4)cn3)nc2n(C2CCCC2)c1=O [Palbociclib] (partner 0.5 µM)
In short: as §1

| Cell Line | relative viability (Doxorubicin + Navitoclax; first compound 0.001 µM) | relative viability (Doxorubicin + Navitoclax; first compound 0.003162 µM) | relative viability (Doxorubicin + Navitoclax; first compound 0.01 µM) | relative viability (Doxorubicin + Navitoclax; first compound 0.03162 µM) | relative viability (Doxorubicin + Navitoclax; first compound 0.1 µM) | relative viability (Doxorubicin + Linsitinib; first compound 0.001 µM) | relative viability (Doxorubicin + Linsitinib; first compound 0.003162 µM) | relative viability (Doxorubicin + Linsitinib; first compound 0.01 µM) | relative viability (Doxorubicin + Linsitinib; first compound 0.03162 µM) | relative viability (Doxorubicin + Linsitinib; first compound 0.1 µM) | relative viability (BAY61-3606 + Tozasertib; first compound 0.02 µM) | relative viability (BAY61-3606 + Tozasertib; first compound 0.06325 µM) | relative viability (BAY61-3606 + Tozasertib; first compound 0.2 µM) | relative viability (BAY61-3606 + Tozasertib; first compound 0.6325 µM) | relative viability (BAY61-3606 + Tozasertib; first compound 2 µM) | relative viability ([1]; first compound 0.001 µM) | relative viability ([1]; first compound 0.003162 µM) | relative viability ([1]; first compound 0.01 µM) | relative viability ([1]; first compound 0.03162 µM) | relative viability ([1]; first compound 0.1 µM) |
| --- | --- | --- | --- | --- | --- | --- | --- | --- | --- | --- | --- | --- | --- | --- | --- | --- | --- | --- | --- | --- |
| NCI-H1993 | 0.947 | 0.876 | 0.884 | 1.01 | 0.889 | 0.711 | 0.751 | 0.741 | 0.659 | 0.733 | 0.521 | 0.582 | 0.621 | 0.59 | 0.577 | 0.492 | 0.695 | 0.639 | 0.625 | 0.649 |
| CAL-12T | 1.09 | 1.16 | 1.24 | 0.423 | 0.182 | 0.783 | 0.858 | 0.762 | 0.432 | 0.48 | 0.289 | 0.305 | 0.198 | 0.303 | 0.165 | 0.41 | 0.527 | 0.486 | 0.279 | 0.174 |
| NCI-H1623 |  |  |  |  |  |  |  |  |  |  | 0.485 | 0.439 | 0.458 | 0.394 | 0.328 |  |  |  |  |  |
| HCC-78 | 0.41 | 0.689 | 0.753 | 0.692 | 0.768 | 0.539 | 0.454 | 0.493 | 0.491 | 0.47 | 0.499 | 0.317 | 0.312 | 0.415 | 0.28 | 0.46 | 0.526 | 0.449 | 0.488 | 0.453 |
| EKVX | 0.929 | 1.09 | 1 | 0.853 | 0.61 | 0.996 | 0.922 | 0.957 | 1.11 | 0.879 | 0.366 | 0.299 | 0.383 | 0.436 | 0.16 | 0.794 | 0.312 | 0.342 | 0.31 | 0.374 |
| NCI-H1666 | 0.882 | 0.953 | 0.55 | 0.282 | 0.275 | 0.803 | 0.762 | 0.561 | 0.268 | 0.285 | 0.6 | 0.572 | 0.492 | 0.473 | 0.458 |  | 0.646 | 0.626 | 0.565 | 0.568 |
| NCI-H2170 | 0.584 | 0.726 | 0.567 | 0.389 | 0.597 |  |  |  |  |  | 0.714 | 0.475 | 0.751 | 0.607 | 0.213 | 0.409 | 0.389 | 0.386 | 0.313 | 0.447 |
| NCI-H1734 | 0.788 | 1.02 | 0.847 | 0.696 | 0.84 | 0.945 | 0.922 | 0.826 | 0.731 | 0.871 | 0.238 | 0.243 | 0.222 | 0.227 | 0.196 | 0.408 | 0.425 | 0.324 | 0.263 | 0.344 |
| Calu-6 | 0.835 | 0.91 | 0.581 | 0.24 | 0.113 | 0.944 | 0.972 | 0.814 | 0.627 | 0.702 |  |  |  |  |  |  |  |  |  |  |
